Laboratory results from patent US12077483B2, “Modified amine lipids” (Intellia Therapeutics, Inc., priority 2018, dated 2024).

Key:
[1] = pKa of amine lipid by TNS fluorescence; assay type: physicochemical; settings: probe TNS (6-(p-toluidino)-2-naphthalenesulfonic acid sodium salt), unformulated amine lipid in ethanol, sodium phosphate buffers -9.0
Procedure, shortened: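 pKa derived from a sigmoidal fit of normalized TNS fluorescence (321 nm excitation, 448 nm emission) versus pH. Lipid from ethanol stock diluted to about 100 μM final in 0.1 M phosphate buffers, pH 4.5–9.0.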

[2] = tested on: mouse B2M gene; test: In vivo editing in mouse liver, LNP with Cas9 mRNA and sgRNA G650, NGS; settings: Table 3; guide G650; CD-1 female mice, 0.1 mpk i.v., liver at 6 or 7 days; Exp. 2-7
Method: LNPs were prepared using various amine lipids in a 4-component lipid system consisting of an ionizable lipid (e.g. an amine lipid), DSPC, cholesterol and PEG-2k-DMG. In assays for percent liver editing in mice, Cas9 mRNA and chemically modified sgRNA targeting a mouse sequence were formulated in LNPs, at either a 1:1 w/w ratio or a 1:2 w/w ratio.
The lipid components were dissolved in 100% ethanol with the lipid component molar ratios described below. The chemically modified sgRNA and Cas9 mRNA were combined and dissolved in 25 mM citrate, 100 mM NaCl, pH 5.0, resulting in a concentration of total RNA cargo of approximately 0.45 mg/mL. The LNPs were formulated with an N/P ratio of about 6, with the ratio of chemically modified sgRNA: Cas9 mRNA at either a 1:1 or 1:2 w/w ratio as described below.
CD-1 female mice, ranging from 6-10 weeks of age were used in each study. Animals were weighed and grouped according to body weight for preparing dosing solutions based on group average weight. LNPs were dosed via the lateral tail vein in a volume of 0.2 mL per animal (approximately 10 mL per kilogram body weight). The animals were periodically observed for adverse effects for at least 24 hours post dose.
For studies measuring in vivo editing in liver, CD-1 female mice were dosed at 0.1 mpk unless otherwise noted. Animals were euthanized at 6 or 7 days by exsanguinationvia cardiac puncture under isoflourane anesthesia. Liver tissue was collected from each animal for DNA extraction and analysis. Blood was collected into serum separator tubes or into tubes containing buffered sodium citrate for plasma as described herein. Cohorts of mice were measured for editing by Next-Generation Sequencing (NGS).
In brief, to quantitatively determine the efficiency of editing at the target location in the genome, genomic DNA was isolated and deep sequencing was utilized to identify the presence of insertions and deletions introduced by gene editing.
PCR primers were designed around the target site (e.g., B2M), and the genomic area of interest was amplified. Additional PCR was performed according to the manufacturer's protocols (Illumina) to add the necessary chemistry for sequencing. The amplicons were sequenced on an Illumina MiSeq instrument. The reads were aligned to the relevant reference genome (e.g., GRCm38) after eliminating those having low quality scores. The resulting files containing the reads were mapped to the reference genome (BAM files), where reads that overlapped the target region of interest were selected and the number of wild type reads versus the number of reads which contain an insertion, substitution, or deletion was calculated.
The editing percentage (e.g., the “editing efficiency” or “percent editing”) is defined as the total number of sequence reads with insertions or deletions over the total number of sequence reads, including wild type.
We assessed in vivo editing efficiency for materials delivered with formulations including various amine lipid compounds. Editing was measured using either G282 (SEQ ID No: 1) which targets the mouse TTR gene or G650 (SEQ ID No. 2) which targets the mouse B2M gene. Lipids described above were assessed for efficacy through in vivo editing experiments. LNPs were formulated at a 1:1 w/w ratio of sgRNA to Cas9 mRNA, and at an N/P ratio of about 6. Molar concentrations of lipids in the lipid component of the LNPs are expressed as mol % amine lipid/DSPC/cholesterol/PEG-2k-DMG, e.g. 50/10/38.5/1.5. The final LNPs were characterized to determine the encapsulation efficiency, polydispersity index, and average particle size according to the analytical methods provided above. Analysis of average particle size, polydispersity (PDI), total RNA content and encapsulation efficiency of RNA are shown in Table 2.

[3] = LNP average particle size and polydispersity by dynamic light scattering; assay type: physicochemical; settings: LNP with the compound as amine lipid; Expt. 9; composition ratio (mol %) 50/9/38/3 for Cmpnd 49, 50/10/38.5/1.5 for the others
Procedure, shortened: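 LNPs were diluted in PBS to a count rate of about 200-400 kcps and measured by DLS on a Zetasizer. Size is the intensity-weighted Z-average diameter, reported with number-average diameter, and the polydispersity index describes the spread of sizes around the mean.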

[4] = RNA encapsulation efficiency of LNP (Ribogreen fluorescence assay); assay type: physicochemical; settings: LNP with the compound as amine lipid; Expt. 9; composition ratio (mol %) 50/9/38/3 for Cmpnd 49, 50/10/38.5/1.5 for the others
Procedure, shortened: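 LNP samples diluted in 1× TE with or without 0.2% Triton-X 100 for total or free RNA, stained ~10 min at room temperature in the dark with RiboGreen; fluorescence ex 488/em 525 nm against RNA standard curves. Encapsulation efficiency = (Total RNA−Free RNA)/Total RNA.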

[5] = tested on: mouse TTR; test: Serum TTR ELISA in mice after LNP delivery; assay type: in vivo; settings: mouse serum, relative to TSS control of same experiment, dose 0.03 mpk
Procedure, shortened: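 Mouse TTR in serum was quantified by ELISA (samples diluted e.g. 10,000- and/or 2,500-fold) 6–7 days after dosing CD-1 females with LNP, typically 0.1 mpk. Values are reported relative to vehicle-treated controls (%).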

| SMILES | pKa [1] | Editing Mean % Indel [2] | also measured |
| --- | --- | --- | --- |
| CCCCC/C=C\C/C=C\CCCCCCCC(=O)OCC(COC(=O)CCCCCCC/C=C\C/C=C\CCCCC)OC(=O)CCC(CCCCCCCCCCCC)OC(=O)OCCCCN(CC)CC (stereo not shown) [Compound 14, 2-((4-(((4-(diethylamino)butoxy)carbonyl)oxy)hexadecanoyl)oxy)propane-1,3-diyl (9Z,9′Z,12Z,12′Z)-bis(octadeca-9,12-dienoate)] | 5.91 | 20.6% | – |
| CCCCC/C=C\C/C=C\CCCCCCCC(=O)OCC(COC(=O)CCCCCCC/C=C\C/C=C\CCCCC)OC(=O)CCC(CCCCCCCCCCCC)OC(=O)NCCN(CC)CC (stereo not shown) [Compound 15, 2-((4-(((2-(diethylamino)ethyl)carbamoyl)oxy)hexadecanoyl)oxy)propane-1,3-diyl (9Z,9′Z,12Z,12′Z)-bis(octadeca-9,12-dienoate)] | 5.9 | 18.0% | – |
| CCCCC/C=C\C/C=C\CCCCCCCC(=O)OCC(COC(=O)CCCCCCC/C=C\C/C=C\CCCCC)OC(=O)CCC(CCCCCCCCCCCC)OC(=O)OCCC1CCCN1C (stereo not shown) [Compound 16, 2-((4-(((2-(1-methylpyrrolidin-2-yl)ethoxy)carbonyl)oxy)hexadecanoyl)oxy) propane-1,3-diyl (9Z,9′Z,12Z,12′Z)-bis(octadeca-9,12-dienoate)] | 5.72 | 10.1% | – |
| CCCCC/C=C\C/C=C\CCCCCCCC(=O)OCC(COC(=O)CCCCCCC/C=C\C/C=C\CCCCC)OC(=O)CCC(CCCCCCCCCCCCCCCC)OC(=O)OCCCN(C)CC (stereo not shown) [Compound 18, 2-((4-(((3-(ethyl(methyl)amino)propoxy)carbonyl)oxy)icosanoyl)oxy)propane-1,3-diyl (9Z,9′Z,12Z,12′Z)-bis(octadeca-9,12-dienoate)] | 5.83 | 4.5% | – |
| CCCCC/C=C\C/C=C\CCCCCCCC(=O)OCC(COC(=O)CCCCCCC/C=C\C/C=C\CCCCC)OC(=O)CCC(CCCCCCCCCCCCCCCC)OC(=O)NCCN(C)CC (stereo not shown) [Compound 20, 2-((4-(((2-(ethyl(methyl)amino)ethyl)carbamoyl)oxy)icosanoyl)oxy)propane-1,3-diyl (9Z,9′Z,12Z,12′Z)-bis(octadeca-9,12-dienoate)] | 6.17 | 15.4% | – |
| CCCCCC/C=C\COC(=O)CCCCCCCC(=O)OCC(COC(=O)CCCCCCCC(=O)OC/C=C\CCCCCC)OC(=O)CCC(CCCCCCCCCCCC)OC(=O)OCCCN(C)C (stereo not shown) [Compound 22, O′1,O1-(2-((4-(((3-(dimethylamino)propoxy)carbonyl)oxy)hexadecanoyl)oxy)propane-1,3-diyl) 9,9′-di((Z)-non-2-en-1-yl) di(nonanedioate)] | 6.06 | 6.7% | – |
| CCCCC/C=C\C/C=C\CCCCCCCC(=O)OCC(COC(=O)CCCCCCC/C=C\C/C=C\CCCCC)OC(=O)CCC(CC/C=C\CCCCC)OC(=O)NCCN1CCCC1 (stereo not shown) [Compound 108, 2-(((Z)-4-(((2-(pyrrolidin-1-yl)ethyl)carbamoyl)oxy)tridec-7-enoyl)oxy)propane-1,3-diyl (9Z,9′Z,12Z,12′Z)-bis(octadeca-9,12-dienoate)] | 6.52 | – | Num Ave Size (nm) [3]: 73 nm; PDI [3]: 0.03; Z-Ave Size (nm) [3]: 89 nm; Encapsulation (%) [4]: 99%; Serum TTR % TSS [5]: 57.12 % TSS |

The next lines start with results.

| pKa [1] | SMILES | Editing Mean % Indel [2] | also measured |
| --- | --- | --- | --- |
| 5.37 | CCCCC/C=C\C/C=C\CCCCCCCC(=O)OCC(COC(=O)CCCCCCC/C=C\C/C=C\CCCCC)OC(=O)CCC(CCCCCCCCCCCC)OC(=O)OC1CCN(CC)CC1 (stereo not shown) [Compound 6, 2-((4-((((1-ethylpiperidin-4-yl)oxy)carbonyl)oxy)hexadecanoyl)oxy)propane-1,3-diyl (9Z,9′Z,12Z,12′Z)-bis(octadeca-9,12-dienoate)] | 0.4% | – |
| 6.05 | CCCCC/C=C\C/C=C\CCCCCCCC(=O)OCC(COC(=O)CCCCCCC/C=C\C/C=C\CCCCC)OC(=O)CCC(CCCCCCCCCCCC)OC(=O)C1(C)CCN(C)CC1 (stereo not shown) [Compound 10, 2-((4-((1,4-dimethylpiperidine-4-carbonyl)oxy)hexadecanoyl)oxy)propane-1,3-diyl (9Z,9′Z,12Z,12′Z)-bis(octadeca-9,12-dienoate)] | 5.3% | – |
| 5.6 | CCCCC/C=C\C/C=C\CCCCCCCC(=O)OCC(COC(=O)CCCCCCC/C=C\C/C=C\CCCCC)OC(=O)CCC(CCCCCCCCCCCC)OC(=O)CCCN(CC)CC (stereo not shown) [Compound 11, 2-((4-((4-(diethylamino)butanoyl)oxy)hexadecanoyl)oxy)propane-1,3-diyl (9Z,9′Z,12Z,12′Z)-bis(octadeca-9,12-dienoate)] | 9.2% | – |
| 6.82 | CCCCC/C=C\C/C=C\CCCCCCCC(=O)OCC(COC(=O)CCCCCCC/C=C\C/C=C\CCCCC)OC(=O)CCC(CCCCCCCCCCCC)OC(=O)NCCN(C)C (stereo not shown) [Compound 12, 2-((4-(((2-(dimethylamino)ethyl)carbamoyl)oxy)hexadecanoyl)oxy)propane-1,3-diyl (9Z,9′Z,12Z,12′Z)-bis(octadeca-9,12-dienoate)] | 5.5% | – |
| 6.18 | CCCCC/C=C\C/C=C\CCCCCCCC(=O)OCC(COC(=O)CCCCCCC/C=C\C/C=C\CCCCC)OC(=O)CCC(CCCCCCCCCCCCCCCC)OC(=O)OCCCN(C)C (stereo not shown) [Compound 17, 2-((4-(((3-(dimethylamino)propoxy)carbonyl)oxy)icosanoyl)oxy)propane-1,3-diyl (9Z,9′Z,12Z,12′Z)-bis(octadeca-9,12-dienoate)] | 12.3% | – |
| 5.99 | CCCCC/C=C\C/C=C\CCCCCCCC(=O)OCC(COC(=O)CCCCCCC/C=C\C/C=C\CCCCC)OC(=O)CCC(CCCCCCCCCCCCCCCC)OC(=O)OCCCN1CCCC1 (stereo not shown) [Compound 19, 2-((4-(((3-(pyrrolidin-1-yl)propoxy)carbonyl)oxy)icosanoyl)oxy)propane-1,3-diyl (9Z,9′Z,12Z,12′Z)-bis(octadeca-9,12-dienoate)] | 13.0% | – |
| 6.12 | CCCCC/C=C\C/C=C\CCCCCCCC(=O)OCC(COC(=O)CCCCCCC/C=C\C/C=C\CCCCC)OC(=O)CCC(CCCCCCCCCCCCCCCC)OC(=O)NCC1CCCN1C (stereo not shown) [Compound 21, 2-((4-((((1-methylpyrrolidin-2-yl)methyl)carbamoyl)oxy)icosanoyl)oxy)propane-1,3-diyl (9Z,9′Z,12Z,12′Z)-bis(octadeca-9,12-dienoate)] | 12.1% | – |
| 6.19 | CCCCCC/C=C\COC(=O)CCCCCCCC(=O)OCC(COC(=O)CCCCCCCC(=O)OC/C=C\CCCCCC)OC(=O)CCC(CCCCCCCCCCCC)OC(=O)NCCN(C)CC (stereo not shown) [Compound 23, O′1,O1-(2-((4-(((2-(ethyl(methyl)amino)ethyl)carbamoyl)oxy)hexadecanoyl)oxy)propane-1,3-diyl) 9,9′-di((Z)-non-2-en-1-yl) di(nonanedioate)] | 7.3% | – |
